One may read the IC50 as the point on the concentration scale where inhibition reaches its midpoint.

What all share (type): biochemical
One experiment concerns the target JAK2 (Homo sapiens (Human), UniProt O60674). The experiment is described as follows: JAK Caliper Enzyme Assay at 1 mM ATP, JAK2. The method, boiled down: (§1)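 Inhibition is measured as reduced phosphorylation of a synthetic peptide by the recombinant human kinase domain at 1 mM ATP. Conditions give 20–30% conversion at room temperature before EDTA quench, and on-chip separation of labelled substrate and product yields percent conversion for dose–response plotting.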

The target of another experiment is TYK2 (Homo sapiens (Human), UniProt P29597). Briefly: JAK Caliper Enzyme Assay at 1 mM ATP, TYK2. The method, boiled down:
as §1

Another experiment deals with JAK3 (Homo sapiens (Human), UniProt P52333). The experiment is described as follows: JAK Caliper Enzyme Assay at 1 mM ATP, JAK3. Summed up:
(§2)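 Recombinant human kinase domains phosphorylate a fluorescent synthetic peptide at 1 mM ATP, room temperature, with enzyme and time tuned for 20-30% conversion; EDTA-stopped. Product/substrate separated by microfluidic mobility shift; percent effect versus DMSO and positive controls fitted to IC50 (nM).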

The target of the next experiment is JAK1 (Homo sapiens (Human), UniProt P23458). Briefly: JAK Caliper Enzyme Assay at 1 mM ATP, JAK1. The method, boiled down:
as §2

Chain of JAK1 (P23458 875-1153): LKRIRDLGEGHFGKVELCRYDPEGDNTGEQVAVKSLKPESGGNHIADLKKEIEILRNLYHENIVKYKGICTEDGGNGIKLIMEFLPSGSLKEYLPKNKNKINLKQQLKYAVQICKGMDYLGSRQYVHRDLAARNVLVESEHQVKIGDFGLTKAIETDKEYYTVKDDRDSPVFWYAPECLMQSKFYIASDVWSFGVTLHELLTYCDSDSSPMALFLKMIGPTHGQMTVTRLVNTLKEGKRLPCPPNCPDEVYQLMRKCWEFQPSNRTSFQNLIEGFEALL
Chain of TYK2 (P29597 897-1176): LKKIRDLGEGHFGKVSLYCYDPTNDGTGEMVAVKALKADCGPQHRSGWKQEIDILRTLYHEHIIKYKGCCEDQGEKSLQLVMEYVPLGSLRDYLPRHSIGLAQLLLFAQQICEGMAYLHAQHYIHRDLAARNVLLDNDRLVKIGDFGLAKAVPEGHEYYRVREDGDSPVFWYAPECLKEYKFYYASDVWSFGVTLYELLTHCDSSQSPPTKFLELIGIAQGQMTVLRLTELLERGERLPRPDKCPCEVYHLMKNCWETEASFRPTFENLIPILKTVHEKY
Chain of JAK3 (P52333 822-1111): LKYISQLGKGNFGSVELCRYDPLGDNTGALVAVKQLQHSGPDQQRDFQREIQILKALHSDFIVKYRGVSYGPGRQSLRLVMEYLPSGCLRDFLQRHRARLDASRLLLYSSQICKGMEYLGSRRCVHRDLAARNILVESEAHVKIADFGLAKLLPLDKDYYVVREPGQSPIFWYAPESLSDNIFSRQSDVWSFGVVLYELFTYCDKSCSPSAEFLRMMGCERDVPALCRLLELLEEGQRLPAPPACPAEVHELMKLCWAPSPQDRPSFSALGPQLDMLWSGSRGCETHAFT
Chain of JAK2 (O60674 849-1124): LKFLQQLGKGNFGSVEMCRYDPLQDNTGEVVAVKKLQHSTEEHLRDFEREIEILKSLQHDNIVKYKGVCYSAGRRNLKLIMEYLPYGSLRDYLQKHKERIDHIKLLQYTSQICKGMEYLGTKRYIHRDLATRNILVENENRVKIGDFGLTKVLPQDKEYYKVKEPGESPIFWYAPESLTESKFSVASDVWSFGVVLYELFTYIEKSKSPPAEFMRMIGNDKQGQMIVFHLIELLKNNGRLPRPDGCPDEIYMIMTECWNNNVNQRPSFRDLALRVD

In the case of `Cn1nncc1-c1cc(-c2cnn([C@]3(CC#N)C[C@H](C#N)C3)n2)c2cccnc2c1` [Example 338, cis-3-(cyanomethyl)-3-{4-[7-(1-methyl-1H-1,2,3-triazol-5-yl)quinolin-5-yl]-2H-1,2,3-triazol-2-yl}cyclobutanecarbonitrile], the IC50 at JAK2 is over 10000 nM; on TYK2 it was 2460 nM; on JAK3, over 10000 nM; on JAK1, over 10000 nM.

Regarding `Cn1cc(-c2cc(-c3cnn([C@]4(CC#N)C[C@@H](C#N)C4)n3)c3cccnc3c2)nn1` [Example 339, trans-3-(cyanomethyl)-3-{4-[7-(1-methyl-1H-1,2,3-triazol-4-yl)quinolin-5-yl]-2H-1,2,3-triazol-2-yl}cyclobutanecarbonitrile], the IC50 on JAK2 was 146 nM; at TYK2, 36 nM; at JAK3, over 10000 nM; on JAK1 it was 8370 nM.

For the compound `N#CCC1(n2ncc(-c3cc(-c4nc(CO)cs4)cc4ncccc34)n2)CC(C#N)C1` (stereo not drawn) [Example 340, cis-3-(cyanomethyl)-3-(4-{7-[4-(hydroxymethyl)-1,3-thiazol-2-yl]quinolin-5-yl}-2H-1,2,3-triazol-2-yl)cyclobutanecarbonitrile], the IC50 on JAK2 turned out to be 94 nM; at TYK2, 13 nM; at JAK3, 8910 nM; at JAK1 it was 432 nM.

In the case of `N#CC[C@]1(n2ncc(-c3cc(-c4nc(CO)cs4)cc4ncccc34)n2)C[C@H](C#N)C1` [Example 341, trans-3-(cyanomethyl)-3-(4-{7-[4-(hydroxymethyl)-1,3-thiazol-2-yl]quinolin-5-yl}-2H-1,2,3-triazol-2-yl)cyclobutanecarbonitrile], the IC50 at JAK2 was 649 nM; at TYK2, 57 nM; on JAK3, over 10000 nM; at JAK1, 3240 nM.

As for `N#CC[C@]1(n2ncc(-c3cc(-c4cnc(CO)s4)cc4ncccc34)n2)C[C@H](C#N)C1` [Example 342, trans-3-(cyanomethyl)-3-(4-{7-[2-(hydroxymethyl)-1,3-thiazol-5-yl]quinolin-5-yl}-2H-1,2,3-triazol-2-yl)cyclobutanecarbonitrile], the IC50 on JAK2 is 990 nM; at TYK2, 135 nM; on JAK3 it was over 10000 nM; on JAK1 it was 2580 nM.

For the compound `N#CC[C@]1(n2ncc(-c3cc(-c4ncc(CO)s4)cc4ncccc34)n2)C[C@H](C#N)C1` [Example 343, trans-3-(cyanomethyl)-3-(4-{7-[5-(hydroxymethyl)-1,3-thiazol-2-yl]quinolin-5-yl}-2H-1,2,3-triazol-2-yl)cyclobutanecarbonitrile], the IC50 at JAK2 was 660 nM; at TYK2, 65 nM; at JAK3, over 10000 nM; on JAK1, 3340 nM.

`N#CCC1(n2ncc(-c3cc(-c4scnc4CO)cc4ncccc34)n2)CC(C#N)C1` (stereo not drawn) [Example 344, trans-3-(cyanomethyl)-3-(4-{7-[4-(hydroxymethyl)-1,3-thiazol-5-yl]quinolin-5-yl}-2H-1,2,3-triazol-2-yl)cyclobutanecarbonitrile]: the IC50 at JAK2 was over 10000 nM; on TYK2, 776 nM; on JAK3 it was over 10000 nM; at JAK1 it was over 10000 nM.

Regarding `N#CC[C@]1(n2ncc(-c3cc(-c4cc(CO)ns4)cc4ncccc34)n2)C[C@H](C#N)C1` [Example 345, trans-3-(cyanomethyl)-3-(4-{7-[3-(hydroxymethyl)-1,2-thiazol-5-yl]quinolin-5-yl}-2H-1,2,3-triazol-2-yl)cyclobutanecarbonitrile], the IC50 on JAK2 is 1860 nM; at TYK2 it was 249 nM; at JAK3 it was over 10000 nM; on JAK1 it was 3810 nM.

`N#CCC1(n2ncc(-c3cc(-c4ccccn4)cc4ncccc34)n2)CC(C#N)C1` (stereo not drawn) [Example 346, cis-3-(cyanomethyl)-3-{4-[7-(pyridin-2-yl)quinolin-5-yl]-2H-1,2,3-triazol-2-yl}cyclobutanecarbonitrile]: the IC50 was 123 nM at JAK2, 23 nM on TYK2, over 10000 nM at JAK3 and 1080 nM at JAK1.

Regarding `N#CC[C@]1(n2ncc(-c3cc(-c4ccc(F)cn4)cc4ncccc34)n2)C[C@@H](C#N)C1` [Example 347, cis-3-(cyanomethyl)-3-{4-[7-(5-fluoropyridin-2-yl)quinolin-5-yl]-2H-1,2,3-triazol-2-yl}cyclobutanecarbonitrile], the IC50 at JAK2 is 114 nM; on TYK2 it was 26 nM; on JAK3, over 10000 nM; at JAK1, 1200 nM.

On to `N#CCC1(n2ncc(-c3cc(-c4ccc(F)cn4)cc4ncccc34)n2)CC(C#N)C1` (stereo not drawn) [Example 348, trans-3-(cyanomethyl)-3-{4-[7-(5-fluoropyridin-2-yl)quinolin-5-yl]-2H-1,2,3-triazol-2-yl}cyclobutanecarbonitrile], for which the IC50 on JAK2 is 876 nM; on TYK2, 143 nM; at JAK3, over 10000 nM; on JAK1, over 10000 nM.

For the compound `N#CCC1(n2ncc(-c3cc(-c4ccc(C(N)=O)cn4)cc4ncccc34)n2)CC(C#N)C1` (stereo not drawn) [Example 351, 6-(5-{2-[trans-3-cyano-1-(cyanomethyl)cyclobutyl]-2H-1,2,3-triazol-4-yl}quinolin-7-yl)pyridine-3-carboxamide], the half-inhibitory concentration (IC50) was 688 nM on JAK2, 131 nM on TYK2, over 10000 nM at JAK3 and over 10000 nM on JAK1.

In the case of `N#CCC1(n2ncc(-c3cc(-c4ccc(C(N)=O)cn4)cc4ncccc34)n2)CC(C#N)C1` (stereo not drawn) [Example 352, 6-(5-{2-[cis-3-cyano-1-(cyanomethyl)cyclobutyl]-2H-1,2,3-triazol-4-yl}quinolin-7-yl)pyridine-3-carboxamide], the IC50 on JAK2 is 106 nM; on TYK2 it was 27 nM; on JAK3, over 10000 nM; on JAK1, 825 nM.

Consider `N#CCC1(n2ncc(-c3cc(-c4cc(C(N)=O)ccn4)cc4ncccc34)n2)CC(C#N)C1` (stereo not drawn) [Example 353, 2-(5-{2-[cis-3-cyano-1-(cyanomethyl)cyclobutyl]-2H-1,2,3-triazol-4-yl}quinolin-7-yl)pyridine-4-carboxamide], for which the IC50 at JAK2 is over 10000 nM; at TYK2, 1570 nM; on JAK3, over 10000 nM; at JAK1, 9630 nM.

`N#CC[C@]1(n2ncc(-c3cc(-c4cc(C(N)=O)ccn4)cc4ncccc34)n2)C[C@@H](C#N)C1` [Example 354, 2-(5-{2-[trans-3-cyano-1-(cyanomethyl)cyclobutyl]-2H-1,2,3-triazol-4-yl}quinolin-7-yl)pyridine-4-carboxamide]: the IC50 was over 10000 nM on JAK2, 7240 nM at TYK2, over 10000 nM at JAK3 and over 10000 nM on JAK1.

For the compound `Cc1ccc(-c2cc(-c3cnn(C4(CC#N)CN(S(C)(=O)=O)C4)n3)c3cccnc3c2)cn1` [Example 355, [3-{4-[7-(6-methylpyridin-3-yl)quinolin-5-yl]-2H-1,2,3-triazol-2-yl}-1-(methylsulfonyl)azetidin-3-yl]acetonitrile], the IC50 on JAK2 is 1580 nM; at TYK2, 137 nM; on JAK3, over 10000 nM; at JAK1 it was over 10000 nM.

These data come from patent US11254668B2, “Pyrazolo[1,5-A]pyrazin-4-yl and related derivatives” (Pfizer Inc., priority 2017, dated 2022).
